Experimental data published in patent US5187192A, “Cyclobutyl derivatives having lipoxygenase inhibitory activity” (Abbott Laboratories, priority 1992, dated 1993).
pIC50: −log10 of the molar value.

Key:
[1] = target: T1, 5-Lipoxygenase (Homo sapiens, UniProt P09917); assay: Inhibition of calcium ionophore-induced LTB4 biosynthesis in human whole blood (5-lipoxygenase inhibition); type: cell-based; details: human heparinized whole blood, A23187 8.3 μM; for pIC50: 15 min preincubation at 37° C., 30 min, read-out: IC50, inhibition of 5-lipoxygenase from stimulated LTB4 formation in human whole blood; for percent inhibition of 5-lipoxygenase from stimulated LTB4 formation in human whole blood: @ 0.1 (column unit 10^-6 M)
T1 construct: Human heparinized whole blood was preincubated with test compounds or vehicle for 15 min; endogenous in cells; host or cells: heparinized human whole blood (blood cells stimulated with calcium ionophore A23187)
T1 sequence (P09917 1-674): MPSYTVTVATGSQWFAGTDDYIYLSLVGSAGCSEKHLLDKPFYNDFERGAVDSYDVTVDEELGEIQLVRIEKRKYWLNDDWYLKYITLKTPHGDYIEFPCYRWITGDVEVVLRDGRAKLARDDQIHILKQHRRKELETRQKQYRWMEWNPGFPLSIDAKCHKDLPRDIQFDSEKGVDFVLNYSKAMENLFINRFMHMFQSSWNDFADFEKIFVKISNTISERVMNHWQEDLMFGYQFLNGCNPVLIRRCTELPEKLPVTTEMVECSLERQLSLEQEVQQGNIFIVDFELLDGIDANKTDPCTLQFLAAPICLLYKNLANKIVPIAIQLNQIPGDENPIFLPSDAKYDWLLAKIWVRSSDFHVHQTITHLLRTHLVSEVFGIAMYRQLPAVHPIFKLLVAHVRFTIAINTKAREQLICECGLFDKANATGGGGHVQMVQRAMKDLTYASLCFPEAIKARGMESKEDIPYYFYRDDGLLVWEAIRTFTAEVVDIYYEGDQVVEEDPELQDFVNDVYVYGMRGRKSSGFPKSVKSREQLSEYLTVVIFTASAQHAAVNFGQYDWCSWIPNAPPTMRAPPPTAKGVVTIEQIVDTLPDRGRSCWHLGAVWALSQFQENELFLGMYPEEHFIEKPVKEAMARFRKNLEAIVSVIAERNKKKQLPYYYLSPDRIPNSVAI
Procedure: Inhibition of leukotriene biosynthesis was evaluated in an assay, involving calcium ionophore-induced LTB4 biosynthesis expressed human whole blood. […] The methanol extract was analyzed for LTB4 using a commercially available radioimmunoassay.

[2] = tested on: leukotriene biosynthesis; assay: Inhibition of leukotriene biosynthesis in vivo after oral administration, rat peritoneal anaphylaxis model; details: at 30 μM/kg, gavage one hour prior to antigen challenge, peritoneal fluid 15 minutes after challenge
Procedure: Inhibition of the biosynthesis of leukotrienes in vivo after oral administration of compound was determined using a rat peritoneal anaphylaxis model in a similar manner as that described by Yound and coworkers (Young, P. R.; Dyer, R. D.; Carter, G. W. Fed. Proc., Fed. Am. Soc. Exp. Biol. 1985, 44, 1185). In this model rats were injected intraperitoneally (ip) with rabbit antibody to bovine serum albumin (BSA) and three hours later injected ip with BSA to induce an antigen-antibody response. Rats were sacrificed 15 minutes after this challenge and the peritoneal fluids were collected and analyzed for leukotriene levels. Test compounds were administered by gavage one hour prior to the antigen challenge. Percent inhibition values were determined by comparing the treatment group to the mean of the control group.

COc1cccc(C2CC(N(O)C(C)=O)C2)c1 (single isomer, unassigned) [Example 6b, N-[3-(3-methoxyphenyl)cyclobutyl]-N-hydroxyacetamide]
pIC50 [1]: 5.92

COc1ccc2cc(C3CC(N(O)C(N)=O)C3)ccc2c1 (single isomer, unassigned) [Example 4a, N-[3-(6-methoxy-2-naphthyl)-cyclobutyl]-N-hydroxyurea]
pIC50 [1]: 6.64

NC(=O)N(O)C1CC(c2ccccc2)C1 (single isomer, unassigned) [Example 2a, N-[3-phenylcyclobutyl]-N-hydroxyurea]
pIC50 [1]: 6.48 | Percent Inhibition of Leukotriene Biosynthesis [2]: 51%

NC(=O)N(O)C1CC(c2ccccc2)C1 (single isomer, unassigned) [Example 2b, N-[3-phenylcyclobutyl]-N-hydroxyurea]
pIC50 [1]: 6.52 | Percent Inhibition of Leukotriene Biosynthesis [2]: 45%

NC(=O)N(O)C1CC(c2ccc(-c3ccccc3)cc2)C1 (single isomer, unassigned) [Example 5a, N-[3-(4-biphenyl)-cyclobutyl]-N-hydroxyurea]
pIC50 [1]: 7.05

NC(=O)N(O)C1CC(c2ccc(-c3ccccc3)cc2)C1 (single isomer, unassigned) [Example 5b, N-[3-(4-biphenyl)-cyclobutyl]-N-hydroxyurea]
pIC50 [1]: 6.02

NC(=O)N(O)C1CC(c2ccc(Oc3ccc(F)cc3)s2)C1 (single isomer, unassigned) [Example 3b, N-[3-(5-(4-fluorophenoxy)thien-2-yl)-cyclobutyl]-N-hydroxyurea]
percent inhibition of 5-lipoxygenase from stimulated LTB4 formation in human whole blood [1]: 52% | Percent Inhibition of Leukotriene Biosynthesis [2]: 82%

NC(=O)N(O)C1CC(c2cccc(Oc3ccc(F)cc3)c2)C1 (single isomer, unassigned) [Example 1a, N-[3-(3-(4-fluorophenoxy)phenyl)-cyclobutyl]-N-hydroxyurea]
pIC50 [1]: 6.89 | Percent Inhibition of Leukotriene Biosynthesis [2]: 76%

NC(=O)N(O)C1CC(c2cccc(Oc3ccc(F)cc3)c2)C1 (single isomer, unassigned) [Example 1b, N-[3-(3-(4-fluorophenoxy)phenyl)-cyclobutyl]-N-hydroxyurea]
pIC50 [1]: 6.80 | Percent Inhibition of Leukotriene Biosynthesis [2]: 59%

COc1ccc2cc(C3CC(N(O)C(N)=O)C3)ccc2c1 (single isomer, unassigned) [Example 4b, N-[3-(6-methoxy-2-naphthyl)-cyclobutyl]-N-hydroxyurea]
pIC50 [1]: 6.28

NC(=O)N(O)C1CC(c2ccc(Oc3ccc(F)cc3)s2)C1 (single isomer, unassigned) [Example 3a, N-[3-(5-(4-fluorophenoxy)thien-2-yl)-cyclobutyl]-N-hydroxyurea]
percent inhibition of 5-lipoxygenase from stimulated LTB4 formation in human whole blood [1]: 53%

COc1cccc(C2CC(N(O)C(C)=O)C2)c1 (single isomer, unassigned) [Example 6a, N-[3-(3-methoxyphenyl)cyclobutyl]-N-hydroxyacetamide]
pIC50 [1]: 6.29
